# Laboratory results from patent US6448280B1, “Angiotensin II antagonists against disorders associated with impaired neuronal conduction velocity, especially diabetic neuropathy” (Zeneca Limited, priority 1992, dated 2002).
# How the values were obtained:
# Assay type in all cases: in vivo
# [1] = system: motor branches supplying the gastrocnemius muscle (sciatic nerve); assay: Motor nerve conduction velocity in streptozotocin-diabetic rats, sciatic branch to gastrocnemius; details: streptozotocin-diabetic male rats; 50 mg/kg daily by gavage for one month, started after one month of diabetes; sciatic notch to knee
# Protocol: (§1) Using an analogous method to that described by Cameron et al in Quarterlty Journal of Experimental Physiology, 1989, 74, 917-926, mature male rats were divided into non-diabetic animals (normal control group) and animals rendered diabetic (by administration of streptozotocin (40-45 mg/kg in 20 mmol/l sodium citrate buffer, pH 4.5, i.p.). The diabetic animals were further divided into two groups. After one month, the motor nerve conduction velocities in one of the diabetic groups (diabetic control group 1) were measured in vivo between the sciatic notch and the knee for motor branches supplying the gastrocnemius and tibialis anterior muscles of the calf using the procedures described by Cameron et al (ibid) (further details of the procedures are given in Experimental Neurology, 1986, 92, 757-761). Sensory nerve conduction velocity was also measured for diabetic control group 1 in the saphenous nerve between the groin and ankle (again using the method of Cameron et al (ibid)). The remaining group of diabetic animals was further divided into two groups. One of these groups was given daily 2-ethyl-4-[(2′-(1H-1,2,3,4-tetrazol-5-yl)biphenyl-4-yl)methoxy]quinoline hydrochloride (Compound A; 50 mg/kg) by gavage, the other group remaining untreated (diabetic control group 2). […]
# [2] = system: saphenous nerve; assay: Sensory nerve conduction velocity in streptozotocin-diabetic rats, saphenous nerve; details: streptozotocin-diabetic male rats; 50 mg/kg daily by gavage for one month, started after one month of diabetes; groin to ankle
# Protocol: as §1
# [3] = system: motor branches supplying the tibialis anterior muscle (sciatic nerve); assay: Motor nerve conduction velocity in streptozotocin-diabetic rats, sciatic branch to tibialis anterior; details: streptozotocin-diabetic male rats; 50 mg/kg daily by gavage for one month, started after one month of diabetes; sciatic notch to knee
# Protocol: as §1
compound,measurement,setting,value
"CCc1cc(OCc2ccc(-c3ccccc3-c3nnn[nH]3)cc2)c2ccccc2n1.Cl [Compound A, 2-ethyl-4-[(2′-(1H-1,2,3,4-tetrazol-5-yl)biphenyl-4-yl)methoxy]quinoline hydrochloride]",Motor NCV Gastrocnemius,[1],62.8 ± 0.9 m/s
same,Sensory NCV Saphenous,[2],60.2 ± 1.1 m/s
same,Motor NCV Tibialis Anterior,[3],60.3 ± 1.2 m/s
